Experimental findings from patent publication US20090036496A1, “Treatment of Stress Urinary Incontinence and Mixed Urinary Incontinence” (UROGENE, priority 2005, published 2009) are described below.

Experiment [1] has as its system alpha1-adrenergic receptors. The experiment is described as follows: Contraction of isolated rabbit urethra rings by activation of alpha1-adrenergic receptors. The following applies: for contraction of the urethra induced by the compound itself: cumulative concentrations 0.01 to 100 μM, relative to norepinephrine 30 μM. The procedure: The compounds were tested in ex vivo experiments carried out on rabbit urethra.
The tests were carried out on isolates of rabbit urethra which were obtained as follows.
The whole urethra was excised and washed in order to remove the adipose and connective tissues, and then cut into rings approximately 4 mm in diameter, one at the median level, the other at the distal level of the urethra.
In this trial, the ability of each of the four compounds mentioned above to induce, by themselves, a contraction of the urethra by activation of the alpha1-adrenergic receptors, compared with norepinephrine used as a positive control, is measured.
The protocol followed is an adaptation of the protocol described by Van der Graaf et al. (Eur. J. Pharmacol., 327: 25-32, 1997).
Krebs-Henseleit solution was modified by adding propanolol (1 μM), normetanephrin (1 μM), desipramine (0.1 μM) and deoxycorticosterone (3 μM) in order to block the beta-adrenergic receptors, catechol-O-methyltransferase and the uptake of noradrenalin type 1 (neuronal) and 2 (extraneuronal), respectively.
An initial force of 1 g is applied to the samples. After a period of 60 minutes of equilibration, the rings are brought into contact with norepinephrine (30 μM), twice consecutively, separated by washing for 60 minutes. The rings that have a contractile response of less than 1 g are discarded and new rings are optionally prepared. After washing for 30 minutes, the compound tested is added at cumulative concentrations ranging from 0.01 to 100 μM. In parallel, the solvent of the compound (distilled water or DMSO) is tested thereon so as to obtain a control curve.
In the case of HP748, an additional experiment was carried out in which prazosin (1 μM), an alpha1-adrenergic receptor antagonist, was incubated for 30 minutes before the addition of HP748.
The results are expressed as percentage of the contraction induced by the second addition of norepinephrine at 30 μM as a function of the concentration of the compound. The latter is represented on a logarithmic scale, by the logarithm of the value in mol/l.

For experiment [2], the system named is female New Zealand white rabbits. Nature of the experiment: Electromyography of striated sphincter (SS-EMG) under irritated bladder conditions. It is filed as in vivo, rabbit. On the procedure: (§1) The effects of cumulative doses of HP749 (0, 1, 3 and 5 mg/kg i.v.), or duloxetine (0, 1 and 2 mg/kg i.v.) on the electromyographic and cystometric parameters were evaluated in anaesthetized female New Zealand white rabbits (n=12/group) under irritated conditions (continuous transvesical infusion of 0.5% acetic acid). The study was performed in accordance with the ethical standards of the Helsinki declaration.
(§2) At the beginning of the cystometry the bladder was emptied. The liquid infusion to stabilize the cyclic voidings was maintained at least for 60 minutes, continuously recording the cystometrogram. Then, placebo was intravenously administered, and the cystometrogram was recorded for other 40 minutes. Consecutive doses of duloxetine or HP749 were then administered with an interval of 40 minutes.
Two electrodes (30-gauge needle) were placed percutaneously into the striated anal sphincter approximately 5-10 mm. lateral to the anus. […] SS-EMG was continuously recorded during the cystometry.
(§3) An intravenous cannula was connected to the ear vein for vehicle (saline) or drug administration. The drugs were freshly prepared before each experiment in saline. Drugs were administered intravenously in a volume of 1 ml. followed by 1 ml. flush of physiological saline.
(§4) All values were expressed as the mean±SEM. Duloxetine or HP749 effects were analyzed and compared with control (saline) values using Wilcoxon rank test. Mann-Whitney U test was performed to compare the effects of duloxetine and HP-749. Statistical significance was considered at p<0.05.

For experiment [3] the test system is unchanged. The experiment is described as follows: Continuous cystometry under irritated bladder conditions (0.5% acetic acid infusion). The following applies: for bladder capacity: p<0.01. It counts as in vivo, rabbit. On the procedure: as §1
Continuous cystometry was performed with the animal supine using a subcutaneous cystostomy. A T tube was connected to the multiperforable plug using a 20-gauge needle, online with a TRA021 pressure transducer and a micro-injection pump. Room-temperature diluted acetic acid was infused into the bladder at a rate of 1.4 ml/hr to elicit repetitive voidings, which allowed collection of data for a large number of voiding cycles. Continuous cystometry was recorded on a PowerLab 4/25.
as §2, §3, §4

Consider `Cc1cn(Nc2ccncc2F)c2ccccc12` [HP183, reference compound], for which, in experiment [1], the “contraction of the urethra induced by the compound itself” value (shortened to “contraction of the urethra induced”) was “no effect”.

As for `CCCN(c1ccncc1F)n1cc(C)c2ccccc21` [HP184, reference compound], the “contraction of the urethra induced” value in experiment [1] is reported as “no effect”.

Regarding `c1ccc2c(c1)ccn2Nc1ccncc1` [HP748, N-(4-pyridinyl)-1H-indol-1-amine], the “contraction of the urethra induced” value in experiment [1] is on record as “induces a significant contraction”. In addition, the “contraction of the urethra after preincubation with prazosin” value in experiment [1] (preincubation with 1 μM of prazosin for 30 minutes) is given as “completely blocked”.

As for `CCCN(c1ccncc1)n1ccc2ccccc21` [HP749, N-propyl-N-(4-pyridinyl)-1H-indol-1-amine], the “effect on SS-EMG compared with duloxetine” value in experiment [2] (Mann-Whitney U test, p<0.05) is on record as “significantly higher than those of duloxetine”. This molecule also returned an SS-EMG increase in experiment [2] (all doses tested (1, 3 and 5 mg/kg i.v.), p<0.01) of 2.5 fold. The results for the bladder capacity in experiment [3] (1 mg/kg i.v.) and in experiment [3] (5 mg/kg i.v.) were 172 % of the control and 235 % of the control, respectively. Besides, the “effect on bladder capacity compared with duloxetine” value in experiment [3] (Mann-Whitney U test, p<0.05) is “significantly higher than those of duloxetine”. In addition, the “contraction of the urethra induced” value in experiment [1] is “no effect”.

Turning to `CNCC[C@H](Oc1cccc2ccccc12)c1cccs1` [duloxetine, reference compound], the SS-EMG activity result in experiment [2] (2 mg./kg i.v., p<0.01) is on record as “significantly increased”. For the same molecule, in experiment [3] (duloxetine 1 and 2 mg/kg i.v. cumulative), the bladder capacity entry was “increased dose-dependently”.
